From paper doi:10.1101/2025.03.14.643404, “A Bivalent Molecular Glue Linking Lysine Acetyltransferases to Oncogene-induced Cell Death” (bioRxiv, 2025)

Experiments:
[1] = tested on: SUDHL5^TRE−3xFLAG-MYC cells; test: Viability of SUDHL5 TRE-3xFLAG-MYC cells, 72 h; type: cell-based; settings: Homo sapiens
Experimental: Thirty thousand cells were seeded in 100 μl of media per well of a 96-well plate and treated with drug for the indicated times and doses. A resazurin-based indicator of cell health (PrestoBlue; P50200, Thermo Fisher) was added for 1.5 h at 37°C, at which point the fluorescence ratio at 560/590 nm was recorded (Tecan Spark). The background fluorescence was subtracted, and the signal was normalized to DMSO-treated cells. IC50 measurements on cell lines were calculated using at least three biological replicates (separate cell passages). Fit of dose–response curves to data and statistical analysis was performed using GraphPad PRISM using the four-parameter log(inhibitor) vs response function.
An N-terminal fusion of 3xFLAG followed by a GGSGS linker fused to the coding sequence of human c-MYC (NM_002467.6)) was subcloned into pCW57-MCS1–2A-MCS2 (a gift from Adam Karpf (Addgene plasmid 71782; http://n2t.net/addgene:71782; RRID:Addgene_71782)).
This construct is the same used for BCL6 nanoBRET studies above. Lentivirus was produced from HEK293T cells via polyethylenimine transfection. Briefly, cells were transfected using 2nd-generation packaging plasmids and media replaced after 24 hours. […]

BBC3/PUMA = test: Western blot of BBC3/PUMA in SUDHL5; type: cell-based, human; settings: SUDHL5, 48 hours
Experimental: Cells were plated at 1M/mL and treated with drug at indicated timepoints and doses. Cells were harvested on ice in RIPA buffer (50mM Tris-HCl pH 8, 150mM NaCl, 1% NP-40, 0.1% DOC, 1% SDS, protease inhibitor cocktail (~20 mg/ml pepstatin, aprotinin, and leupeptin), 1mM DTT) and 1:200 benzonase (Sigma E1014) was added and incubated for 20 mins. After 10 min centrifugation at 14,000g and 4 °C, the supernatant was collected and protein concentration was measured by Bradford. SDS-PAGE analysis was carried out in either 4–12% or 12% Bis-Tris PAGE gels (Thermo NW04120 and NW04127). Antibodies used for immunoblots were: BCL6 (1:1000 v:v, Cell Signaling D65C10), p300 (1:250, Santa Cruz F-4 sc-48343), CBP (1:1000, Cell Signaling D6C5), c-MYC (1:1000, Cell Signaling D84C12), Caspase-3 (1:1000, Cell Signaling 9662), GAPDH (1:2000, Santa Cruz 6C5 sc-32233), BBC3/PUMA (1:1000, Cell Signaling E2P7G), FOXO3 (1:1000, Cell Signaling 75D8), H3K27ac (1:1000, abcam ab4729), H2BK20ac (1:1000, Cell Signaling D709W), H3 (1:10,000, Cell Signaling 1B1B2), H2B (1:10,000, Cell Signaling D2H6), p27/CDKN1B (1:1000, Cell Signaling D69C12), and TP53 (1:1000, Santa Cruz DO-1). ImageStudio (Licor) was used for blot imaging and quantification.

IC50 ([1]; SU-DHL-5, + dox (1 μg/mL doxycycline 24 h prior)): ~7.5 nM | IC50 ([1]; SU-DHL-5, − dox): ~2 nM
SMILES: CNC(=O)COc1cc2cc(Nc3nc(N4CCC(C(=O)N5CCN(CCC(=O)N6CCC(n7nc(N8CCCc9cc(-c%10cnn(C)c%10)c(C(F)F)cc98)c8c7CCN(C(=O)NC)C8)CC6)CC5)CC4)ncc3Cl)cc(OC)c2n(C)c1=O [TCIP3]
PUMA expression increase (BBC3/PUMA): more than 6 fold
